Earlier results as cited in patent publication US20070059360A1, “WATER-DISPERSIBLE ANTI-RETROVIRAL PHARMACEUTICAL COMPOSITIONS” (priority 2005, published 2007).

Molecular target: HIV reverse transcriptase (Human immunodeficiency virus type 1 group M subtype B, UniProt P04585)
Settings: in vitro; reported by S. A. Riddler, et al

Cc1cn([C@H]2C=C[C@@H](CO)O2)c(=O)[nH]c1=O [Stavudine, 2′,3′-didehydro-3′-deoxythymidine]
Inhibition of HIV reverse transcriptase: potent inhibitor
